Laboratory results: ChEMBL document CHEMBL1201862, “PubChem BioAssay data set” (2004)
pIC50: −log10 of the molar value. Activity calls are given as the source filed them.

What was measured:
[1] = biological target: T1, Mannose-6-phosphate isomerase (Homo sapiens, UniProt P34949); test: Confirmation of compounds inhibiting phosphomannose isomerase (PMI) via a fluorescence intensity assay using a high concentration of mannose 6-phosphate. [Related pubchem assays (depositor defined):AID1209, AID1220, AID1545, AID1553, AID1620]
T1 sequence (P34949 whole entry): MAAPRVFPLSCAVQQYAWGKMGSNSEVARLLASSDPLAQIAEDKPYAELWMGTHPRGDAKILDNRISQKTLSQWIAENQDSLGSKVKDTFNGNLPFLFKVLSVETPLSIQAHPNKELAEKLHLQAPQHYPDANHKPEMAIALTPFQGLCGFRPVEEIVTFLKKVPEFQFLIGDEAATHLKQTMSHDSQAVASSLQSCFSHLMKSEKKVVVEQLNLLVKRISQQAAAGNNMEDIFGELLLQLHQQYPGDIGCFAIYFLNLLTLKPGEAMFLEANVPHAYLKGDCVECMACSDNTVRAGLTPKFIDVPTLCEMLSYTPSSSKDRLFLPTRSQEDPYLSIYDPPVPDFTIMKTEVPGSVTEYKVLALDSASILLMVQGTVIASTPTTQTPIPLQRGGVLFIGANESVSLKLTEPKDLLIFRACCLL

[2] = biological target: T1, Mannose-6-phosphate isomerase; test: PMI enzyme inhibitors, confirmation, biochemical, fluorescence intensity (AID 1535)
[3] = biological target: Alkaline phosphatase, placental type (Homo sapiens, UniProt P05187); test: PLAP enzyme inhibitors, confirmation, biochemical, luminescence (AID 1512); format: functional
[4] = microbe, parasite or virus in culture; format: functional; details: Mycobacterium tuberculosis
[5] = biological target: T2, Kappa-type opioid receptor (Homo sapiens, UniProt P41145); format: functional
Beta-galactosidase = Beta-galactosidase (Escherichia coli, UniProt Q8VNN2); format: functional
[6] = biological target: T2, Kappa-type opioid receptor; format: functional; remark: listed apart in the source
[7] = THP-1 cell cytotoxicity, dose response, cytotoxicity control for non-replicating M. tuberculosis project (AID 489025); format: functional
cells = format: functional
Caspase-3 = biological target: T3, Caspase-3 (Homo sapiens, UniProt P42574); test: procaspase-3 activators, dose response, biochemical, absorbance (AID 489014)
T3 sequence (P42574 whole entry): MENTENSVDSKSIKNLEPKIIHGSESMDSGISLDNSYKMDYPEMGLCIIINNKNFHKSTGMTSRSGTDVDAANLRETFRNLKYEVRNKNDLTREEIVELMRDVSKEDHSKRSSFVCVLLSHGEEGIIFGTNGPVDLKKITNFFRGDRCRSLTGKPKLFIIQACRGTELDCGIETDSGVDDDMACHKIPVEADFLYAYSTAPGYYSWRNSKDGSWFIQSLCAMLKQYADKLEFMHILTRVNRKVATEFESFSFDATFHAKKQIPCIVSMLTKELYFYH

[8] = Luminescence Cell-Based Dose Retest to Confirm Inhibitors of Cancer Stem Cells. [Related pubchem assays (depositor defined):AID2717, AID2721]; format: functional, Homo sapiens; details: Homo sapiens
Caspase-7 = Caspase-7 (Homo sapiens, UniProt P55210); test: procaspase-7 activators, dose response, counter-screen for procaspase-3 activator project, biochemical, absorbance (AID 489013)
[9] = inhibitors of intracellular T. cruzi replication, confirmation, NIH3T3 host cells, beta-gal luminescence (AID 2044); format: functional, cell-based;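 also: intracellular parasites grown in NIH/3T3 mouse fibroblasts as host cells; luminescent beta-galactosidase reporter signal from transgenic T. cruzi replicating inside host cells; inhibitors lower the luminescence signal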
[10] = cytotoxicity toward NIH3T3 fibroblasts, dose response, counter-screen, cell-based, ATP luminescence, mouse fibroblasts (AID 2010); format: functional;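 also: cells exposed to compound for about 90 hours before reading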
[11] = biological target: T4, G-protein coupled receptor 55 (Homo sapiens, UniProt Q9Y2T6); test: GPR55 agonists via beta-arrestin recruitment, primary screen, imaging, U2OS cells, beta-arrestin-GFP redistribution (AID 1961); format: functional
Vero [12] = test: cells; format: functional, cell-based; details: Chlorocebus sabaeus
Vero [13] = test: cells; format: functional; details: Chlorocebus sabaeus
Phosphomannomutase 2 = Phosphomannomutase 2 (Homo sapiens, UniProt O15305); test: Counter screen SAR assay for PMM2 inhibitors via a fluorescence intensity assay. [Related pubchem assays (depositor defined):AID1545, AID1574]
[14] = biological target: Phosphoethanolamine/phosphocholine phosphatase (Homo sapiens, UniProt Q8TCT1); test: SAR assay for compounds that inhibit PHOSPHO1. [Related pubchem assays (depositor defined):AID1545, AID1565, AID1574]
Hexokinase = Hexokinase (Trypanosoma brucei, UniProt Q38C41); test: Confirmation assay for inhibitors of Trypanosoma brucei hexokinase 1-Analogue-first series. [Related pubchem assays (depositor defined):AID1430, AID1632, AID2516, AID2560, AID2579, AID2600, AID449725, AID492951]; format: functional
HeLa = test: HeLa cell cytotoxicity, dose response, cytotoxicity control, 24 h, cherry-picked samples (AID 504726); format: functional, cell-based; details: Homo sapiens;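 also: potency for cytotoxicity as loss of luminescence signal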
[15] = inhibition of K1F phage lysis, E. coli UTI89, bacterial capsule biogenesis inhibitors, alamar blue (AID 488966); format: functional
ORF 73 = biological target: T5, ORF 73 (Human herpesvirus 8, UniProt O40947); test: inhibitors of C-LANA binding to LBS DNA, dose response, biochemical, fluorescence polarization, cherry-picked samples (AID 504725); design: species or system Human gammaherpesvirus 8;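 also: fluorescence polarization of a labeled DNA duplex reporting LANA DNA binding; potency is for inhibitors that block LANA binding to the DNA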
T5 sequence (O40947 whole entry): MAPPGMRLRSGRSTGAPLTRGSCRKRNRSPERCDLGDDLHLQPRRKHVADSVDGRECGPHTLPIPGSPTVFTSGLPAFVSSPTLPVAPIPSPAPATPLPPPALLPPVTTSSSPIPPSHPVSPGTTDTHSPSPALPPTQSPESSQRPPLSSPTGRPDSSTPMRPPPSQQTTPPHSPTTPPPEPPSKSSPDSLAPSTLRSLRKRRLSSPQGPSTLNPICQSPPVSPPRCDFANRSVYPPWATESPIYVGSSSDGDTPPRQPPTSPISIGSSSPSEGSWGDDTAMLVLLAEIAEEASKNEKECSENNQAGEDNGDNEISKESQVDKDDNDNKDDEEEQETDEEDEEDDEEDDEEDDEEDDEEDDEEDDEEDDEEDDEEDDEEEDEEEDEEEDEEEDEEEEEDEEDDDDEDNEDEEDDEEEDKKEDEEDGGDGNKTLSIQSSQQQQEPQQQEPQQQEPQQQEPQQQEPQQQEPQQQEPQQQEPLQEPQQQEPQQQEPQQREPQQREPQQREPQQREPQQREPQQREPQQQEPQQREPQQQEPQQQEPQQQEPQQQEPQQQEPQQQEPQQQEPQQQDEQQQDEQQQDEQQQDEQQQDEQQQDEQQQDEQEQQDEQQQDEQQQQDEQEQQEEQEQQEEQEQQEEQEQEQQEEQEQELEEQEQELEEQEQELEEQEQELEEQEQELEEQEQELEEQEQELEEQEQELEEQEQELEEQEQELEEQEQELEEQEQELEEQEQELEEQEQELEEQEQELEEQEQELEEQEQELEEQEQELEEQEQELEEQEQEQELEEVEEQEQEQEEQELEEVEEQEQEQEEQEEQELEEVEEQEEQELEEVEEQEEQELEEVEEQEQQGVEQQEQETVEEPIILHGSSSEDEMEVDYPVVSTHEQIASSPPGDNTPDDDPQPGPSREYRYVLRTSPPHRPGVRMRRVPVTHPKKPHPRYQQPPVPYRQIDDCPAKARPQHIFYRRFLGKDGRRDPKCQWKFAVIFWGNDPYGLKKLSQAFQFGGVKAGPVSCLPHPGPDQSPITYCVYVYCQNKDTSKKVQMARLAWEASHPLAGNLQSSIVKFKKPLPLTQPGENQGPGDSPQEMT

[16] = HeLa cell cytotoxicity, dose response, cytotoxicity control for MgcRacGAP inhibitor project (AID 624300); format: functional
[17] = biological target: T6, Rac GTPase-activating protein 1 (Homo sapiens, UniProt Q9H0H5); test: MgcRacGAP GTPase-activating activity inhibitors, confirmation, biochemical, ADP Hunter fluorescence, primary and confirmatory (AID 624330); format: functional
T6 sequence (Q9H0H5 whole entry): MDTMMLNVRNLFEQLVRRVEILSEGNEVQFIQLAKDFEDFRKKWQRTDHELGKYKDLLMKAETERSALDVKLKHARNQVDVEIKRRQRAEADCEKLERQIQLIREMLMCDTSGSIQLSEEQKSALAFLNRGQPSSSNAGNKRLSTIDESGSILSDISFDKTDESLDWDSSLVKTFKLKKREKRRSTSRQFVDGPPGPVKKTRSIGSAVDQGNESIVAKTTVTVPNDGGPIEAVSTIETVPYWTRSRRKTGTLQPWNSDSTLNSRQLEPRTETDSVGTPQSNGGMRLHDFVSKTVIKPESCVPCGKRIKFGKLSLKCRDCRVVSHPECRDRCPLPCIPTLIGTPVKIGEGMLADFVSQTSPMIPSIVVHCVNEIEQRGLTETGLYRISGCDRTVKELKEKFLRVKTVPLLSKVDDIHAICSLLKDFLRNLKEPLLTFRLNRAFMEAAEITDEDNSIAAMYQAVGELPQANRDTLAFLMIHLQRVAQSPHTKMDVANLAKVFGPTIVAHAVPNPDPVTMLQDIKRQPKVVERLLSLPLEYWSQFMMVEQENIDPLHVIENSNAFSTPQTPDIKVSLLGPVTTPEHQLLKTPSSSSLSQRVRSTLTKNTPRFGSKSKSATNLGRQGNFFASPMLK

[18] = Luminescence-based cell-based high throughput dose response assay to identify activators of the DAF-12 from the parasite S. stercoralis (ssDAF-12).; format: functional
[19] = biological target: T7, Oxysterols receptor LXR-beta (Homo sapiens, UniProt P55055); test: LXR agonists, Gal4 luciferase reporter, dose response, counter-screen for ssDAF-12 agonist project, cell-based, luminescence, HEK293, S. stercoralis campaign (AID 720737); format: functional; details: read-out: IC50 (the source's name)
T7 sequence (P55055 whole entry): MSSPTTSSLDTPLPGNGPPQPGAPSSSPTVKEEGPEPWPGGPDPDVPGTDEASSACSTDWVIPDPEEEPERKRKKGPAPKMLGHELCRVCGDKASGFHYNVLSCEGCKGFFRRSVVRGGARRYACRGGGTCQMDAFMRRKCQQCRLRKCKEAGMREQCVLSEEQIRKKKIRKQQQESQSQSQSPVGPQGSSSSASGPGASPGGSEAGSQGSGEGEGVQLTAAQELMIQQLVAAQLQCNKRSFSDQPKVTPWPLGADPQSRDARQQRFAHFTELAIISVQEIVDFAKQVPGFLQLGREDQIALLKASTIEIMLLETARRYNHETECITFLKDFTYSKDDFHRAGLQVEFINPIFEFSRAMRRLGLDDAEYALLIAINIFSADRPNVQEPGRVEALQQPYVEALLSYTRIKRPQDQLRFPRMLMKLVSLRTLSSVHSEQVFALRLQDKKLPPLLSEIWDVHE

[20] = biological target: Glutathione S-transferase omega-1 (Homo sapiens, UniProt P78417); test: GSTO1 inhibitor potency, recombinant enzyme, late-stage follow-up, biochemical, SE-Rh probe, in-gel fluorescence, powder samples, set 2 (AID 463142); format: functional
[21] = biological target: Potassium voltage-gated channel subfamily KQT member 2 (Rattus norvegicus, UniProt O88943); test: retigabine-insensitive KCNQ2 potentiators, concentration-response, dose response, cell-based, retigabine-insensitive compounds (AID 2654); format: functional
[22] = biological target: DNA damage-inducible transcript 3 protein (Mus musculus, UniProt P35639); format: functional, Cricetulus griseus
X-box-binding protein 1 = biological target: T8, X-box-binding protein 1 (Homo sapiens, UniProt P17861); format: functional, Cricetulus griseus;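 also: confirmatory dose-response counter-screen serving a CHOP assay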
T8 sequence (P17861 whole entry): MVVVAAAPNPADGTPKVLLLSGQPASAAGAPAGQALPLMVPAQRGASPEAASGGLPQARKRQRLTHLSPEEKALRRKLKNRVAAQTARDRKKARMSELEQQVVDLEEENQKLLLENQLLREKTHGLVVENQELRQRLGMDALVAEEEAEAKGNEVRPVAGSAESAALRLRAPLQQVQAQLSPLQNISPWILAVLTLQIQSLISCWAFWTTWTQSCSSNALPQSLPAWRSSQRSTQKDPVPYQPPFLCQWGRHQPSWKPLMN

H9c2 = test: cells; format: functional, cell-based; details: Rattus norvegicus, H9c2, Myocardium
[23] = biological target: T4, G-protein coupled receptor 55; test: GPR55 antagonists blocking LPI-driven arrestin recruitment, primary screen, imaging, U2OS, beta-arrestin-GFP, LPI agonist (AID 2013); format: functional;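 also: antagonist potency measured as reduced agonist-driven arrestin aggregation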

T4 sequence (Q9Y2T6 whole entry): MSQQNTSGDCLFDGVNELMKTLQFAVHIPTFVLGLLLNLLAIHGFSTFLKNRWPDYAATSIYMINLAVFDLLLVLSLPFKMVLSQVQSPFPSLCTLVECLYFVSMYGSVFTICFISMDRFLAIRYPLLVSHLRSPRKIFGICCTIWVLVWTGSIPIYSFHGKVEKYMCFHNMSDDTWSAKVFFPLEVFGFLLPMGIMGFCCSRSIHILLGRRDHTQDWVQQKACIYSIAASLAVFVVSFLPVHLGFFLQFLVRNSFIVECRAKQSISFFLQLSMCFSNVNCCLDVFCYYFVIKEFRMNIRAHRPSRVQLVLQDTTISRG
T2 sequence (P41145 whole entry): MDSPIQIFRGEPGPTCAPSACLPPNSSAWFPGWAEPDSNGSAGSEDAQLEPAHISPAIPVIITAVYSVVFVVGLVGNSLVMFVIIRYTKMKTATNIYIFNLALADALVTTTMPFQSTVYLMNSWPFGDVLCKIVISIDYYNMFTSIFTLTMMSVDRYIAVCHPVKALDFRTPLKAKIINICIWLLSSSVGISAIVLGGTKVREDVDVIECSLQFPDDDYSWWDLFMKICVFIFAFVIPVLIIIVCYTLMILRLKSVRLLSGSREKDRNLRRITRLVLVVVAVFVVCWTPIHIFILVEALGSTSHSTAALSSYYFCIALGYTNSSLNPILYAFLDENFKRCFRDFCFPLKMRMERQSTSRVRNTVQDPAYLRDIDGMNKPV
Caspase-7, sequence (P55210 24-198 limits assumed): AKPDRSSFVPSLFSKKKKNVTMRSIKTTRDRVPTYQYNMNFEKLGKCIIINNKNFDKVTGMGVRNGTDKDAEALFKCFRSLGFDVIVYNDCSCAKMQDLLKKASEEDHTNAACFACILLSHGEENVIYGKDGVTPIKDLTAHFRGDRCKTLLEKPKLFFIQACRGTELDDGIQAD
Caspase-7, sequence (P55210 207-303 limits assumed): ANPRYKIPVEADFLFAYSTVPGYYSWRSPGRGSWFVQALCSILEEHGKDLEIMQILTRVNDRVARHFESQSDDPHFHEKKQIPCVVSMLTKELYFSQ
Potassium voltage-gated channel subfamily KQT member 2, sequence (O88943 whole entry): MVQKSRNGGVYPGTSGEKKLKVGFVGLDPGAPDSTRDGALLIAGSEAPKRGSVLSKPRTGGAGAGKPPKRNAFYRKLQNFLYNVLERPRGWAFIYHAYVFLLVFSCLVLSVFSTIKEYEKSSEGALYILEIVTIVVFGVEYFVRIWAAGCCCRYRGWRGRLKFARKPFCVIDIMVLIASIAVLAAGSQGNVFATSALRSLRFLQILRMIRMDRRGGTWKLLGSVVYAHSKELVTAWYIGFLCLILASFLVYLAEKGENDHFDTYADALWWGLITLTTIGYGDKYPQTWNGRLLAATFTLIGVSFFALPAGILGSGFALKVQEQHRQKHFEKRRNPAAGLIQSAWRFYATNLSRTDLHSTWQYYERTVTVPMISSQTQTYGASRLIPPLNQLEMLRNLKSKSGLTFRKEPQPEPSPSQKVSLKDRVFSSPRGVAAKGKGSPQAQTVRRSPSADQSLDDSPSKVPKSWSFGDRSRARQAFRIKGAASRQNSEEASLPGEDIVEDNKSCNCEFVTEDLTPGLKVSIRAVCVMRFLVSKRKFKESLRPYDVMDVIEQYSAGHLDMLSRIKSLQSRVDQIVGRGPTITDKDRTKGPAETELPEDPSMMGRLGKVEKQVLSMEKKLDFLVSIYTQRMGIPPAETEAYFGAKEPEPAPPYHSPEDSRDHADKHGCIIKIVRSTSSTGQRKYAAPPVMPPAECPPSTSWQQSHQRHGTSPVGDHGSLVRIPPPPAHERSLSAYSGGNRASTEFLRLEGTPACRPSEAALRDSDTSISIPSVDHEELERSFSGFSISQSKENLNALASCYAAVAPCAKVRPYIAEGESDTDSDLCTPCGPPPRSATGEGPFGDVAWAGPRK
Phosphoethanolamine/phosphocholine phosphatase, sequence (Q8TCT1 whole entry): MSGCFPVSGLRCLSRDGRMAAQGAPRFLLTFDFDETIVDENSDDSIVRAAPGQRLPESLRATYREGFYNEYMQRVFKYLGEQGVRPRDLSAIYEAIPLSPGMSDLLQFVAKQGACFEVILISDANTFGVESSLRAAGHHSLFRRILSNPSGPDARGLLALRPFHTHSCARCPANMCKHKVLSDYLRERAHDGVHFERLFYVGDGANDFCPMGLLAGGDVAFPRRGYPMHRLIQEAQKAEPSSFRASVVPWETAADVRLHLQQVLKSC
Glutathione S-transferase omega-1, sequence (P78417 whole entry): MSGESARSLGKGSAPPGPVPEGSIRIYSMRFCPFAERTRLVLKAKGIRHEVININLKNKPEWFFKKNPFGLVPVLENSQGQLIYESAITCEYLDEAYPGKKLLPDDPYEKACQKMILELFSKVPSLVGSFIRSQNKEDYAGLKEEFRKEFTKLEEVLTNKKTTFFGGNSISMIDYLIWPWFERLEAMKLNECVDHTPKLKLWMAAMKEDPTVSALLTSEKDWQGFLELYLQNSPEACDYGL
Hexokinase, sequence (Q38C41 whole entry): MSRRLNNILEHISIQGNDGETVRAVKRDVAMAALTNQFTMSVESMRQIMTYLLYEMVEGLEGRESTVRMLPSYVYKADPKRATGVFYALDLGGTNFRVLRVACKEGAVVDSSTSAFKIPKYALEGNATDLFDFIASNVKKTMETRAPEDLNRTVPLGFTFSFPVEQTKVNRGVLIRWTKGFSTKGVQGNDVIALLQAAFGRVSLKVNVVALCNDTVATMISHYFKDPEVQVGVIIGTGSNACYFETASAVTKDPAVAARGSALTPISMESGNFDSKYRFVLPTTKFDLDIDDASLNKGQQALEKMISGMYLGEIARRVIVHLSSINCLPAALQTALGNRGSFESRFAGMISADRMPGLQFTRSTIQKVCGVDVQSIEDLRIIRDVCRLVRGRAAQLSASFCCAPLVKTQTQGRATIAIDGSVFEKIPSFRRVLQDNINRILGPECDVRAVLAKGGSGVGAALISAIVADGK
Alkaline phosphatase, placental type, sequence (P05187 whole entry): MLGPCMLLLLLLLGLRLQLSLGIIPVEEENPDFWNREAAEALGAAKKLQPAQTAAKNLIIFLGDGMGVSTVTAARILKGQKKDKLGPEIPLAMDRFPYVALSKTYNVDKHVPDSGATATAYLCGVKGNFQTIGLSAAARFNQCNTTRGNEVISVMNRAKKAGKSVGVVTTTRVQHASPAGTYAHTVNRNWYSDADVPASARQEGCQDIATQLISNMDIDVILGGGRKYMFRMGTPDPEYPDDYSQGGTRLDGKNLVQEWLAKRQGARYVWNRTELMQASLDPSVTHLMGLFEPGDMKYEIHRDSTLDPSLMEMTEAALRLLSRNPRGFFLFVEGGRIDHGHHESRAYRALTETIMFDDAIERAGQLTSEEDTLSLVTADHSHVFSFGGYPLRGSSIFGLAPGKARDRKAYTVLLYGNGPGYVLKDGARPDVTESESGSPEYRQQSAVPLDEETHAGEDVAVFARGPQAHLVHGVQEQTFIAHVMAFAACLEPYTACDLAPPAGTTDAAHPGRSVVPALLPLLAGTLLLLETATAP
Phosphomannomutase 2, sequence (O15305 whole entry): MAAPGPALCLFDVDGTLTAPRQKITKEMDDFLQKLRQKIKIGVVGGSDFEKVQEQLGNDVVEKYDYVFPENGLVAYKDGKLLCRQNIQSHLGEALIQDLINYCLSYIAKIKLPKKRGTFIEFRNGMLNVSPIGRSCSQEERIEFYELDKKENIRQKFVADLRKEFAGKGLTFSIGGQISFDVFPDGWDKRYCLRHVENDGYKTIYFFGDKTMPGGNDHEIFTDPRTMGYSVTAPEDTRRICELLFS
Beta-galactosidase, sequence (Q8VNN2 whole entry): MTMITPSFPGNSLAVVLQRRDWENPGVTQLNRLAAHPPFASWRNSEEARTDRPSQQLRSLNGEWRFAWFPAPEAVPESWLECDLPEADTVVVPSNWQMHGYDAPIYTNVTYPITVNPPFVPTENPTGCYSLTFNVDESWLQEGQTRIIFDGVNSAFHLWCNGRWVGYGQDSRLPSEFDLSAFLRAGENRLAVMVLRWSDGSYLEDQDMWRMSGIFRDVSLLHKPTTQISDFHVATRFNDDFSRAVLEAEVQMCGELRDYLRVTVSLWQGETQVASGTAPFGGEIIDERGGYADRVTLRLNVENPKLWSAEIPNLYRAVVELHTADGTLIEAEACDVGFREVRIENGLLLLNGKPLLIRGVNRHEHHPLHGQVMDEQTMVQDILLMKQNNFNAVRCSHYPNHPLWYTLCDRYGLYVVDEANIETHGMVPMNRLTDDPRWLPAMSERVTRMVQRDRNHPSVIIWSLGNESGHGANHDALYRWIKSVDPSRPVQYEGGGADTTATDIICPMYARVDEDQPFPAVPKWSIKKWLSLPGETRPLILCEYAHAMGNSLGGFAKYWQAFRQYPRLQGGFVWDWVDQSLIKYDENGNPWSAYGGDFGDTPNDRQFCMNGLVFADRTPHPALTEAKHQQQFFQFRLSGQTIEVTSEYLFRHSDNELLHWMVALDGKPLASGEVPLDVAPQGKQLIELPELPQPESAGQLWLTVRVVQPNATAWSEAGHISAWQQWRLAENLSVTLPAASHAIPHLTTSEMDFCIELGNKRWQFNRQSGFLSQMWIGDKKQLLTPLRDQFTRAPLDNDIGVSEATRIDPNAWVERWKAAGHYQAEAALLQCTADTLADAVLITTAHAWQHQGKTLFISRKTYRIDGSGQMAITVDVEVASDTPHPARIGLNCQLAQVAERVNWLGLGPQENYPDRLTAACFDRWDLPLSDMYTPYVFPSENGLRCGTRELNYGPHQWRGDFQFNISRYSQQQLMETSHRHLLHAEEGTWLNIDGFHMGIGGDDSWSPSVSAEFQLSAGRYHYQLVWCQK
DNA damage-inducible transcript 3 protein, sequence (P35639 whole entry): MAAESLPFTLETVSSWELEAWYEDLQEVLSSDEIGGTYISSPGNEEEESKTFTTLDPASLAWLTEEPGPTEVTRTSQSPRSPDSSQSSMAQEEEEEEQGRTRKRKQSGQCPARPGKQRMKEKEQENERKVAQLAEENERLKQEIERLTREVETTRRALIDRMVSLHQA

## C=CCN1C(=O)/C(=N\Nc2ccccc2O)c2ccccc21
[1]
  IC50: > 100 µM (inactive)
[2]
  IC50: > 100 µM (inactive)
[3]
  IC50: > 100 µM (inactive)

## CC(C)(C)NC(=O)C(=O)NNC(=O)c1ccc(C(C)(C)C)cc1
[4]
  CC50: > 40 µM (active)
[5]
  IC50: > 31.5 µM (inactive)
Beta-galactosidase
  EC50: > 31.5 µM (inactive)
[6]
  pIC50: < 4.49
[7]
  CC50: > 40 µM (active)
cells
  IC50: 19.4 µM (active)

## COc1ccc(-c2sc3ccc(OC)cc3c2C#Cc2ccccn2)cc1
Caspase-3
  EC50: > 85.2 µM (inactive)
[8]
  AC50: 3 µM (active)
Caspase-7
  EC50: > 85.2 µM (inactive)

## Cc1ccc(C(=O)C(C(=O)/C=C/c2ccccc2)=C2SCCCS2)cc1
[9]
  EC50: 990 nM (active)
[10]
  EC50: 10.3 µM (active)
[11]
  EC50: 3.63 µM (active)
[8]
  AC50: 1.24 µM (active)
Vero [12]
  IC50: 7.69 µM (active)
Vero [13]
  CC50: > 25 µM (active)

## O=c1c2ccc(F)cc2sn1-c1cccc(Cl)c1Cl
[2]
  IC50: > 50 µM (inactive)
Phosphomannomutase 2
  IC50: > 100 µM (inactive)
[14]
  IC50: 359 nM (active)

## O=c1c2ccc(F)cc2sn1Cc1ccccc1
Hexokinase
  IC50: > 25 µM (inactive)

## CNc1c2cccc(C)c2nc2c(C(=O)NCCN(C)C)cccc12
HeLa
  AC50: 1.01 µM (active)
[15]
  IC50: > 150 µM (active)
ORF 73
  AC50: 5.35 µM (active)
[16]
  CC50: 3.39 µM (active)
[17]
  IC50: 34.6 µM (active)
[18]
  IC50: > 67.5 µM (inactive)
[19]
  EC50: > 67.5 µM (inactive)

## O=C(NC1CCCCC1)C(c1cccnc1)N(C(=O)CCl)c1ccc(Cl)c(Cl)c1 (stereo not given)
[20]
  IC50: 45 nM (active)

## O=C(Nc1ccc(Br)nc1)Nc1cccc(F)c1
[21]
  EC50: 4.04 µM (active)

## CCOC(=O)c1c(C)[nH]c(O)c1/C=N/c1ccc(Cl)cc1
[22]
  Absolute IC50 (CHOP): 10 µM
X-box-binding protein 1
  Absolute IC50 (XBP1): 10 µM
H9c2
  IC50: 13.8 µM (active)

## CCOC(=O)C1=C(C)N=C(C)/C(=C(\O)OCC)C1c1ccc(Br)o1 (stereo not given)
[23]
  IC50: 2.42 µM (active)
